Measured values from patent US20220030867A1 (priority 2018, published 2022).

Experiments:
Fusarium culmorum = test: whole plant or invertebrate; type: in vivo, Fusarium culmorum on wheat spikelets cv. Monsun; details: in Triticum aestivum, read-out: control of Fusarium culmorum

CC(C)CC(Cc1ccccc1)C(=O)Nc1cnc2c(F)cccc2c1 (stereo not shown) [Compound E-35, 2-benzyl-N-(8-fluoro-3-quinolyl)-4-methyl-pentanamide]
pest or weed control at 200 ppm (Fusarium culmorum): ≥ 80%

CCCC(C)(Cc1ccccc1)C(=O)Nc1cnc2c(F)cccc2c1 (stereo not shown) [Compound E-77, 2-benzyl-N-(8-fluoro-3-quinolyl)-2-methyl-pentanamide]
pest or weed control at 200 ppm (Fusarium culmorum): ≥ 80%

Cc1nc2c(F)cccc2cc1NC(=O)C(C)(Cc1ccccc1)OC(C)C (stereo not shown) [Compound E-39, N-(8-fluoro-2-methyl-3-quinolyl)-2-isopropoxy-2-methyl-3-phenyl-propanamide]
pest or weed control at 200 ppm (Fusarium culmorum): ≥ 80%

CC(Cc1ccccc1)(CC(F)F)C(=O)Nc1cnc2c(F)cccc2c1 (stereo not shown) [Compound E-55, 2-benzyl-4,4-difluoro-N-(8-fluoro-3-quinolyl)-2-methyl-butanamide]
pest or weed control at 200 ppm (Fusarium culmorum): ≥ 80%

COC(C)(Cc1ccccc1)C(=O)Nc1cc2cccc(F)c2nc1C (stereo not shown) [Compound E-41, N-(8-fluoro-2-methyl-3-quinolyl)-2-methoxy-2-methyl-3-phenyl-propanamide]
pest or weed control at 200 ppm (Fusarium culmorum): ≥ 80%

C=C(C)CC(C)(Cc1ccccc1)C(=O)Nc1cnc2c(Br)cccc2c1 (stereo not shown) [Compound E-63, 2-benzyl-N-(8-bromo-3-quinolyl)-2,4-dimethyl-pent-4-enamide]
pest or weed control at 200 ppm (Fusarium culmorum): ≥ 80%
melting point: 165 to 169 °C

C=C(C)CC(C)(Cc1ccccc1)C(=O)Nc1cnc2c(F)cccc2c1 (stereo not shown) [Compound E-74, 2-benzyl-N-(8-fluoro-3-quinolyl)-2,4-dimethyl-pent-4-enamide]
pest or weed control at 200 ppm (Fusarium culmorum): ≥ 80%
melting point: 147 to 149 °C

COC(Cc1ccccc1)(CC(C)C)C(=O)Nc1cc2cccc(F)c2nc1C (stereo not shown) [Compound E-37, 2-benzyl-N-(8-fluoro-2-methyl-3-quinolyl)-2-methoxy-4-methyl-pentanamide]
pest or weed control at 200 ppm (Fusarium culmorum): ≥ 80%
melting point: 92 to 94 °C

C/C=C(\C)CC(C)(Cc1ccccc1)C(=O)Nc1cnc2c(F)cccc2c1 (stereo not shown) [Compound E-32, (E)-2-benzyl-N-(8-fluoro-3-quinolyl)-2,4-dimethyl-hex-4-enamide]
pest or weed control at 200 ppm (Fusarium culmorum): ≥ 80%

CC(Cc1ccccc1)(CC(F)(F)F)C(=O)Nc1cnc2cc(F)ccc2c1 (stereo not shown) [Compound E-52, 2-benzyl-4,4,4-trifluoro-N-(7-fluoro-3-quinolyl)-2-methyl-butanamide]
melting point: 180 to 182 °C

CC(C)CC(C)(Cc1ccccc1)C(=O)Nc1cnc2c(Cl)cccc2c1 (stereo not shown) [Compound E-9, 2-benzyl-N-(8-chloro-3-quinolyl)-2,4-dimethyl-pentanamide]
melting point: 163 to 165 °C

CC(C)(Cc1ccccc1)C(=O)Nc1cnc2c(F)cccc2c1 [Compound E-69, N-(8-fluoro-3-quinolyl)-2,2-dimethyl-3-phenyl-propanamide]
pest or weed control at 200 ppm (Fusarium culmorum): ≥ 80%

CC(C)(C)C(Cc1ccccc1)C(=O)Nc1cnc2c(F)cccc2c1 (stereo not shown) [Compound E-88, 2-benzyl-N-(8-fluoro-3-quinolyl)-3,3-dimethyl-butanamide]
pest or weed control at 200 ppm (Fusarium culmorum): ≥ 80%
melting point: 212 to 215 °C

CC(Cc1ccccc1)(CC(F)(F)Cl)C(=O)Nc1cnc2c(F)cccc2c1 (stereo not shown) [Compound E-56, 2-benzyl-4-chloro-4,4-difluoro-N-(8-fluoro-3-quinolyl)-2-methyl-butanamide]
pest or weed control at 200 ppm (Fusarium culmorum): ≥ 80%

Cc1nc2c(F)cccc2cc1NC(=O)C(C)(Cc1ccccc1)CC(F)(F)F (stereo not shown) [Compound E-47, 2-benzyl-4,4,4-trifluoro-N-(8-fluoro-2-methyl-3-quinolyl)-2-methyl-butanamide]
pest or weed control at 200 ppm (Fusarium culmorum): ≥ 80%

C=C(F)CC(C)(Cc1ccccc1)C(=O)Nc1cnc2c(F)cccc2c1 (stereo not shown) [Compound E-71, 2-benzyl-4-fluoro-N-(8-fluoro-3-quinolyl)-2-methyl-pent-4-enamide]
pest or weed control at 200 ppm (Fusarium culmorum): ≥ 80%
melting point: 132 to 134 °C

COC(C)(Cc1ccccc1)C(=O)Nc1cnc2c(F)cccc2c1 (stereo not shown) [Compound E-43, N-(8-fluoro-3-quinolyl)-2-methoxy-2-methyl-3-phenyl-propanamide]
pest or weed control at 200 ppm (Fusarium culmorum): ≥ 80%
melting point: 107 to 109 °C

Cc1cccc2cc(NC(=O)C(C)(Cc3ccccc3)CC(F)(F)F)cnc12 (stereo not shown) [Compound E-59, 2-benzyl-4,4,4-trifluoro-2-methyl-N-(8-methyl-3-quinolyl)-butanamide]
pest or weed control at 200 ppm (Fusarium culmorum): ≥ 80%
melting point: 123 to 125 °C

C=C(C)CC(C)(Cc1ccccc1)C(=O)Nc1cnc2ccccc2c1 (stereo not shown) [Compound E-64, 2-benzyl-2,4-dimethyl-N-(3-quinolyl)pent-4-enamide]
pest or weed control at 200 ppm (Fusarium culmorum): ≥ 80%

CC(C=C(F)F)(Cc1ccccc1)C(=O)Nc1cnc2c(F)cccc2c1 (stereo not shown) [Compound E-57, 2-benzyl-4,4-difluoro-N-(8-fluoro-3-quinolyl)-2-methyl-but-3-enamide]
pest or weed control at 200 ppm (Fusarium culmorum): ≥ 80%

CC(F)(F)CC(C)(Cc1ccccc1)C(=O)Nc1cnc2c(F)cccc2c1 (stereo not shown) [Compound E-68, 2-benzyl-4,4-difluoro-N-(8-fluoro-3-quinolyl)-2-methyl-pentanamide]
pest or weed control at 200 ppm (Fusarium culmorum): ≥ 80%
melting point: 156 to 158 °C

O=C(Nc1cnc2c(F)cccc2c1)C(Cc1ccccc1)CC(F)(F)Cl (stereo not shown) [Compound E-58, 2-benzyl-4-chloro-4,4-difluoro-N-(8-fluoro-3-quinolyl)butanamide]
pest or weed control at 200 ppm (Fusarium culmorum): ≥ 80%
melting point: 65 to 70 °C

C=C(C)CC(C)(Cc1ccccc1)C(=O)Nc1cc2cccc(F)c2nc1C (stereo not shown) [Compound E-66, 2-benzyl-N-(8-fluoro-2-methyl-3-quinolyl)-2,4-dimethyl-pent-4-enamide]
pest or weed control at 200 ppm (Fusarium culmorum): ≥ 80%

COC(Cc1ccccc1)(CC(C)C)C(=O)Nc1cnc2c(F)cccc2c1 (stereo not shown) [Compound E-38, 2-benzyl-N-(8-fluoro-3-quinolyl)-2-methoxy-4-methyl-pentanamide]
pest or weed control at 200 ppm (Fusarium culmorum): ≥ 80%
melting point: 133 to 135 °C

CC(Cc1ccccc1)(CC(F)(F)F)C(=O)Nc1cnc2cccc(F)c2c1 (stereo not shown) [Compound E-49, 2-benzyl-4,4,4-trifluoro-N-(5-fluoro-3-quinolyl)-2-methyl-butanamide]
melting point: 140 to 142 °C

Cc1c(NC(=O)[C@@](C)(Cc2ccccc2)CC(F)(F)F)cnc2c(F)cccc12 [Compound F-14, (2S)-2-benzyl-4,4,4-trifluoro-N-(8-fluoro-4-methyl-3-quinolyl)-2-methyl-butanamide]
pest or weed control at 200 ppm (Fusarium culmorum): ≥ 80%

COCN(C(=O)C(C)(Cc1ccccc1)CC(F)(F)F)c1cnc2c(F)cccc2c1 (stereo not shown) [Compound E-33, 2-benzyl-4,4,4-trifluoro-N-(8-fluoro-3-quinolyl)-N-(methoxymethyl)-2-methyl-butanamide]
melting point: 108 to 110 °C

C=C(C)CC(C)(Cc1ccccc1)C(=O)Nc1cnc2c(F)cccc2c1C (stereo not shown) [Compound E-65, 2-benzyl-N-(8-fluoro-4-methyl-3-quinolyl)-2,4-dimethyl-pent-4-enamide]
melting point: 105 to 109 °C

CC(C)OC(C)(Cc1ccccc1)C(=O)Nc1cnc2c(F)cccc2c1 (stereo not shown) [Compound E-40, N-(8-fluoro-3-quinolyl)-2-isopropoxy-2-methyl-3-phenyl-propanamide]
pest or weed control at 200 ppm (Fusarium culmorum): ≥ 80%

CC(Cc1ccccc1)C(=O)Nc1cnc2c(F)cccc2c1 (stereo not shown) [Compound E-31, N-(8-fluoro-3-quinolyl)-2-methyl-3-phenyl-propanamide]
melting point: 188 to 190 °C

C=C(C)CC(C)(Cc1cccc(F)c1)C(=O)Nc1cc2cccc(F)c2nc1C (stereo not shown) [Compound E-12, N-(8-fluoro-2-methyl-3-quinolyl)-2-[(3-fluorophenyl)methyl]-2,4-dimethyl-pent-4-enamide]
melting point: 124 to 126 °C

C=C(CC)CC(C)(Cc1ccccc1)C(=O)Nc1cnc2c(F)cccc2c1 (stereo not shown) [Compound E-54, 2-benzyl-N-(8-fluoro-3-quinolyl)-2-methyl-4-methylene-hexanamide]
melting point: 118 to 120 °C

Cc1c(NC(=O)C(C)(Cc2ccccc2)CC(F)(F)F)cnc2c(Cl)cccc12 (stereo not shown) [Compound E-15, 2-benzyl-N-(8-chloro-4-methyl-3-quinolyl)-4,4,4-trifluoro-2-methyl-butanamide]
melting point: 73 to 75 °C

Cc1c(NC(=O)[C@](C)(Cc2ccccc2)CC(F)(F)F)cnc2c(F)cccc12 [Compound F-13, (2R)-2-benzyl-4,4,4-trifluoro-N-(8-fluoro-4-methyl-3-quinolyl)-2-methyl-butanamide]
pest or weed control at 200 ppm (Fusarium culmorum): ≥ 80%

Cc1nc2c(F)cccc2cc1NC(=O)[C@](C)(Cc1ccccc1)CC(C)C [Compound F-7, (2S)-2-benzyl-N-(8-fluoro-2-methyl-3-quinolyl)-2,4-dimethyl-pentanamide]
pest or weed control at 200 ppm (Fusarium culmorum): ≥ 80%

CN(C(=O)C(C)(Cc1ccccc1)CC(F)(F)F)c1cnc2c(F)cccc2c1 (stereo not shown) [Compound E-42, 2-benzyl-4,4,4-trifluoro-N-(8-fluoro-3-quinolyl)-N,2-dimethyl-butanamide]
melting point: 137 to 139 °C

Cc1c(NC(=O)C(C)(Cc2ccccc2)CC(C)C)cnc2c(Cl)cccc12 (stereo not shown) [Compound E-14, 2-benzyl-N-(8-chloro-4-methyl-3-quinolyl)-2,4-dimethyl-pentanamide]
melting point: 124 to 126 °C

Cc1nc2c(F)cccc2cc1NC(=O)[C@@](C)(Cc1ccccc1)CC(C)C [Compound F-8, (2R)-2-benzyl-N-(8-fluoro-2-methyl-3-quinolyl)-2,4-dimethyl-pentanamide]
pest or weed control at 200 ppm (Fusarium culmorum): ≥ 80%

CC(C)CC(C#N)(Cc1ccccc1)C(=O)Nc1cnc2c(F)cccc2c1 (stereo not shown) [Compound E-83, 2-benzyl-2-cyano-N-(8-fluoro-3-quinolyl)-4-methyl-pentanamide]
pest or weed control at 200 ppm (Fusarium culmorum): ≥ 80%

C=C(C)CC(C)(Cc1cccc(F)c1)C(=O)Nc1cnc2c(F)cccc2c1 (stereo not shown) [Compound E-11, 2-[(3-fluorophenyl)-methyl]-N-(8-fluoro-3-quinolyl)-2,4-dimethyl-pent-4-enamide]
melting point: 125 to 127 °C

CC(Cc1ccccc1)(CC(F)(F)F)C(=O)Nc1cnc2ccccc2c1 (stereo not shown) [Compound E-81, 2-benzyl-4,4,4-trifluoro-2-methyl-N-(3-quinolyl)butanamide]
pest or weed control at 200 ppm (Fusarium culmorum): ≥ 80%

CC1(CC(C)(Cc2ccccc2)C(=O)Nc2cnc3c(F)cccc3c2)CC1 (stereo not shown) [Compound E-70, 2-benzyl-N-(8-fluoro-3-quinolyl)-2-methyl-3-(1-methylcyclopropyl)propanamide]
melting point: 149 to 151 °C
